Laboratory results taken from ChEMBL document CHEMBL1201862, “PubChem BioAssay data set” (2004).
Activity calls are given as the source filed them.

Columns and labels:
[1] = molecular target: Luciferin 4-monooxygenase (Photinus pyralis, UniProt P08659); assay: firefly luciferase enzyme inhibitors, dose response, biochemical, luminescence (AID 1891)
[2] = Luminescence Cell-Based Dose Confirmation HTS to Identify Inhibitors of Platelet Dense Granule Release. [Related pubchem assays: 1663 (Primary HTS), 1678 (Summary of Project)]; assay type: functional
[3] = molecular target: T1, Galanin receptor type 3 (Homo sapiens, UniProt O60755); assay: Fluorescence-based cell-based primary high throughput dose response assay to identify antagonists of the Galanin Receptor 3 (GalR3).; assay type: functional
T1 sequence (O60755 whole entry): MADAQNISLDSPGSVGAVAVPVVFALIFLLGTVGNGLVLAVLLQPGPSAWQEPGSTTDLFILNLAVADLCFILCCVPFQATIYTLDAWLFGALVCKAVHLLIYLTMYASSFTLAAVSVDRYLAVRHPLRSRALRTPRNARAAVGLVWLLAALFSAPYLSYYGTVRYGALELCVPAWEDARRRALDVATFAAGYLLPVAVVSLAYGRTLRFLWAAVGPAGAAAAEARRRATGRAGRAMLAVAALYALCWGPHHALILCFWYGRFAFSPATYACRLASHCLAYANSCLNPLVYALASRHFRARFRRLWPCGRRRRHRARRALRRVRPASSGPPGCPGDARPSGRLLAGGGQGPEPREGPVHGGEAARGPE

[4] = cells; assay type: functional, cell-based; conditions: HEK-CNG
[5] = Luminescence Cell-Based Dose Response to Identify Activators of 5'UTR Stem-Loop Driven Prion Protein mRNA Translation in H4-C Neuroglioblastoma Cells. [Related pubchem assays: 1829 (Project Summary), 1814 (Primary HTS)]; assay type: functional
[6] = Luminescence Cell-Based Dose Response HTS to Identify Activators of Luciferase Translation or Activity in H4 […] Cells. [Related pubchem assays: 1829 (Project Summary), 1814 (Primary HTS)]; assay type: functional
[7] = Luminescence Cell-Based Dose Response to Identify Activators of Luciferase Translation or Activity in H4-C Neuroglioblastoma Cells. [Related pubchem assays: 1829 (Project Summary), 1814 (Primary HTS)]; assay type: functional
[8] = Luminescence Cell-Based Dose Confirmation to Identify Activators of 5'UTR Stem-Loop Driven Alpha-Synuclein mRNA Translation in H4 Neuroglioblastoma Cells. [Related pubchem assays: 1829 (Project Summary), 1814 (Primary HTS)]; assay type: functional
[9] = NIH-3T3 fibroblast cytotoxicity, dose response, cytotoxicity control, cell-based, fluorescence, Alamar Blue, secondary assay (AID 2327); assay type: functional;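 also: NIH-3T3 mouse fibroblasts cultured with fluconazole at 8 µg/mL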
[10] = C. albicans growth with fluconazole, confirmation, fluorescence, retest (AID 2467); assay type: functional, cell-based
[11] = inhibitors of intracellular T. cruzi replication, confirmation, NIH3T3 host cells, beta-gal luminescence (AID 2044); assay type: functional, cell-based;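 also: intracellular parasites grown in NIH/3T3 mouse fibroblasts as host cells; luminescent beta-galactosidase reporter signal from transgenic T. cruzi replicating inside host cells; inhibitors lower the luminescence signal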
[12] = cytotoxicity toward NIH3T3 fibroblasts, dose response, counter-screen, cell-based, ATP luminescence, mouse fibroblasts (AID 2010); assay type: functional;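 also: cells exposed to compound for about 90 hours before reading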
[13] = THP-1 cell cytotoxicity, dose response, cytotoxicity control for non-replicating M. tuberculosis project (AID 489025); assay type: functional
[14] = molecular target: T2, Heat shock factor protein 1 (Mus musculus, UniProt P38532); assay: HSF1 potentiators in luciferase reporter cells, confirmation, cell-based, NIH3T3, luminescence, dose retest (AID 435004); assay type: functional;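 also: stress induced by proteasome inhibitor MG132 added 30 min after compound; luciferase reporter driven by HSF1 response element in NIH3T3 cells; actives raise luminescence as potentiators of the MG132 stress response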
T2 sequence (P38532 whole entry): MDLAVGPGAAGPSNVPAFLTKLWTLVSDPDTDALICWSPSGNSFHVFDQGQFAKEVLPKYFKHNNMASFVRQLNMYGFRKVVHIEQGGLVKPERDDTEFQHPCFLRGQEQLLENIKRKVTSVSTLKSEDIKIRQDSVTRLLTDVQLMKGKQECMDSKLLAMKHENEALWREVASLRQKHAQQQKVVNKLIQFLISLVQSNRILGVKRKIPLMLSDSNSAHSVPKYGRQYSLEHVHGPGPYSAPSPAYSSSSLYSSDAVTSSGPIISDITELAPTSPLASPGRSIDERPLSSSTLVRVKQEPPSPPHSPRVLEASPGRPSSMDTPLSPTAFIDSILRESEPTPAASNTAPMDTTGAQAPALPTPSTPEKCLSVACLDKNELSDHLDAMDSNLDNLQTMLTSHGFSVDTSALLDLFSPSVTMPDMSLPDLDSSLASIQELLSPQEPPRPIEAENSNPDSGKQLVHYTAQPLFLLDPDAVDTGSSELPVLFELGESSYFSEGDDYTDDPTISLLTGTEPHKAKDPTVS

[15] = cells; assay type: functional
[16] = molecular target: T3, Replicative DNA helicase DnaB (Mycobacterium tuberculosis, UniProt P9WMR3); assay: DnaB intein splicing inhibitors, dose response, biochemical, cell-free fluorescence (AID 449749); assay type: functional
T3 sequence (P9WMR3 whole entry): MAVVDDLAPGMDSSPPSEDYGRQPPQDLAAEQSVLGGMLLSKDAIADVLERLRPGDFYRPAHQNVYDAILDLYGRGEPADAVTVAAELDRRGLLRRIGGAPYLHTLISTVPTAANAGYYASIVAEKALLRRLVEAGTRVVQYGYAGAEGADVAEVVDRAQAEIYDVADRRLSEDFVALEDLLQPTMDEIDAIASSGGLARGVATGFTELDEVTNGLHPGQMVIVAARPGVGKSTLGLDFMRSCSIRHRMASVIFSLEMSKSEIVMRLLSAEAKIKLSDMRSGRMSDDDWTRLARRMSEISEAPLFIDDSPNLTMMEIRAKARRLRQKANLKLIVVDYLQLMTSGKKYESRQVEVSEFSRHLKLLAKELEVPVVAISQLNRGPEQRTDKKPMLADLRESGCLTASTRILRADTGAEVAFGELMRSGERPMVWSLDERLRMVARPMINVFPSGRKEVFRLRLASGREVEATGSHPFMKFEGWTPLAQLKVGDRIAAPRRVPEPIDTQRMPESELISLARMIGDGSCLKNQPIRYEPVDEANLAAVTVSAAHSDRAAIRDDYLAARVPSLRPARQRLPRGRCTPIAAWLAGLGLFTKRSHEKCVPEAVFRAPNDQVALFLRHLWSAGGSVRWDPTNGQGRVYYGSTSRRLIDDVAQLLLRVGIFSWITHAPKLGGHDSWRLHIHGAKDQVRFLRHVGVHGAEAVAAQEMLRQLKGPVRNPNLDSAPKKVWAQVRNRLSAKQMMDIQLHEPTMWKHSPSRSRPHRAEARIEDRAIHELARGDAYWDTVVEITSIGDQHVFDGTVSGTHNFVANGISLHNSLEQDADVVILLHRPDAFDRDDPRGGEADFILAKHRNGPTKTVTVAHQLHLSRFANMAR

[17] = molecular target: T4, Protein RecA (Mycobacterium tuberculosis, UniProt P9WHJ3); assay: Fluorescence Cell-Free Homogeneous Dose Retest to Identify Inhibitors of RecA-Intein Splicing Activity. [Related pubchem assays (depositor defined):AID2097, AID2223, AID489010, AID492950]; assay type: functional
T4 sequence (P9WHJ3 whole entry): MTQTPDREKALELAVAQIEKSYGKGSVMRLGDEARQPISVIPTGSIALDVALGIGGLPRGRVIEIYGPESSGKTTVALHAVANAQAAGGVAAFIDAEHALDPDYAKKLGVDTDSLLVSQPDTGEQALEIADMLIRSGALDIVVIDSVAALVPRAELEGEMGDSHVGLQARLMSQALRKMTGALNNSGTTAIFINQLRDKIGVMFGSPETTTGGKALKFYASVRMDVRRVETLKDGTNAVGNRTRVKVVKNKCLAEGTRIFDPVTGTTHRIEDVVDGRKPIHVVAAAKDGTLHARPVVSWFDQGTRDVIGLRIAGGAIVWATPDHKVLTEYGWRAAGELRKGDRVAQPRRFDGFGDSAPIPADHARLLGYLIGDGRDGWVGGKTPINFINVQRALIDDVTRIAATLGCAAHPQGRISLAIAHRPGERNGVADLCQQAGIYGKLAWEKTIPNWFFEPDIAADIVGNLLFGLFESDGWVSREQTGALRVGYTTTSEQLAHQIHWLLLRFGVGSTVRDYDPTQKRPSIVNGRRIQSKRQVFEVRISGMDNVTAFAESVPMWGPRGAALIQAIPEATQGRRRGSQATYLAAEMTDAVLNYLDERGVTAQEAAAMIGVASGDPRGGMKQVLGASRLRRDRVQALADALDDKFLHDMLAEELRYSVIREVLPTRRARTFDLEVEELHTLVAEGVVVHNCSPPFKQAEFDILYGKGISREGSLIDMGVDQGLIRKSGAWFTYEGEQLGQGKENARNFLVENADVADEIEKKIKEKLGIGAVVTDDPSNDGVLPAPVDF

[18] = HepG2 cell cytotoxicity, dose response, cytotoxicity control, plate reader, cherry-pick, antagonist series (AID 743416); assay type: functional, cell-based
[19] = HEK293 cell cytotoxicity, dose response, cytotoxicity control, plate reader, cherry-picked samples (AID 743446); assay type: functional, cell-based
[20] = tested on: HEK293; assay: inhibitors of LMP1-driven NF-kB reporter, dose response, cell-based, HEK293, luciferase, cherry-pick (AID 588343); assay type: functional; conditions: Homo sapiens
[21] = molecular target: Paired box protein Pax-8 (Homo sapiens, UniProt Q06710); assay: inhibitors of PAX8-driven TPO luciferase reporter, dose response, RMG-I cells, cherry-pick (AID 687027); assay type: functional, cell-based;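 also: luciferase reporter driven by Pax8 target thyroperoxidase promoter measured by SteadyGlo luminescence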
[22] = A549 cell cytotoxicity, dose response, cytotoxicity control, plate reader, cherry-pick, antagonist series (AID 743412); assay type: functional, cell-based
[23] = LGR2 antagonists, dose response, cell-based, HEK293, CRE-luciferase reporter, cherry pick, set 2 (AID 743343); assay type: functional;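 also: transfected cells were stimulated with diluted bursicon conditioned medium after compound addition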
[24] = MC4R antagonists, dose response, counter-screen for LGR2 antagonist project, cell-based, plate reader, cherry pick (AID 743444); assay type: functional;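 also: transfected HEK 293 cells stimulated with alpha-MSH peptide; potency of inhibitors of the alpha-MSH evoked signal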
[25] = molecular target: Major prion protein (Homo sapiens, UniProt P04156); assay type: functional, cell-based
[26] = inhibitors of PGC1a acetylation in cells, dose response, cell-based, cherry-picked samples (AID 720514); assay type: functional;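 also: potency may reflect raised or lowered acetylation signal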

Sequence of Paired box protein Pax-8 (Q06710 whole entry): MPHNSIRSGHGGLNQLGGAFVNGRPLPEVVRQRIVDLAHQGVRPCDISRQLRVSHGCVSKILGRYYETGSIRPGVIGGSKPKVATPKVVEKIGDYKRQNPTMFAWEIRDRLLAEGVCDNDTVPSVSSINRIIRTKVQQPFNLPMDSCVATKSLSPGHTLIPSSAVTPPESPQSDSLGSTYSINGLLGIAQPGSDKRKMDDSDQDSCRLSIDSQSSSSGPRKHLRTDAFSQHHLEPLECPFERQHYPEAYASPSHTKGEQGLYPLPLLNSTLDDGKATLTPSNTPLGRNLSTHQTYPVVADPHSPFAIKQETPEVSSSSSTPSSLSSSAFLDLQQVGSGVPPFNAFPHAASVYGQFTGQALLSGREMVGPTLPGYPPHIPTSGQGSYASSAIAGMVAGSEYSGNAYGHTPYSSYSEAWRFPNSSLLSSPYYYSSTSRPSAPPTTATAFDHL
Sequence of Luciferin 4-monooxygenase (P08659 whole entry): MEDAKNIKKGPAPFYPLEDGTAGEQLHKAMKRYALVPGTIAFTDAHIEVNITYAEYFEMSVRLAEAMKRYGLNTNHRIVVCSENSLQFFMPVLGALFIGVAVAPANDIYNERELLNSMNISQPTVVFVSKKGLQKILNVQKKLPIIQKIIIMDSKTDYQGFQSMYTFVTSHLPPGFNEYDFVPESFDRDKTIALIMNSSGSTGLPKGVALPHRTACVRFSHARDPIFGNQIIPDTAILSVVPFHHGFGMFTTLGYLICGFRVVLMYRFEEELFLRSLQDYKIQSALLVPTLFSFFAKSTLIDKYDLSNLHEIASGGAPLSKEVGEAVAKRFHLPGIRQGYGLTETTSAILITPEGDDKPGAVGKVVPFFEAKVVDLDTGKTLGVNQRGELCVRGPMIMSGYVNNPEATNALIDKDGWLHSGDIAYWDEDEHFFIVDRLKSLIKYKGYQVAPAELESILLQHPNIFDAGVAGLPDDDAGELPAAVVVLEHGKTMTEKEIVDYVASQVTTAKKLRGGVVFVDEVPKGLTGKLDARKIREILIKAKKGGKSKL

## COc1ccc(C2CC(=O)Nc3sc(=N)c4c(N)c(C#N)c(N)nc4c32)cc1OC (configuration not stated)
[1]
  EC50: > 112 µM (not active)
[2]
  EC50: 0.706 µM (active)
[3]
  IC50: 2.28 µM (active)
[4]
  EC50: > 29.9 µM (inactive)

## COCCn1c(C)cc(C(=O)CSc2nc(O)c3ccccc3n2)c1C
[5]
  EC50: 0.269 µM (active)
[6]
  EC50: < 0.1 µM (active)
[7]
  EC50: 0.326 µM (active)
[8]
  EC50: 0.371 µM (active)

## Cc1noc2ncnc(Sc3ccc(Br)cc3)c12
[9]
  EC50: 7.6 µM (inconclusive)
[10]
  EC50: > 38 µM (not active)
[11]
  EC50: 1.96 µM (active)
[12]
  EC50: > 60 µM (inconclusive)
[13]
  CC50: > 40 µM (active)
[14]
  EC50: 6.64 µM (active)
[15]
  IC50: 11.6 µM (active)
[16]
  AC50: 4.02 µM (active)
[17]
  EC50: 16.2 µM (active)
[18]
  AC50: 25.4 µM (active)
[19]
  AC50: > 52 µM (inactive)

## COc1ccc(-c2csc3ncnc(Sc4nnnn4C)c23)cc1
[20]
  AC50: 8.04 µM (active)
[21]
  AC50: 4.92 µM (active)
[22]
  AC50: 26.8 µM (active)
[23]
  AC50: 17.8 µM (active)
[24]
  AC50: 20.8 µM (active)
[19]
  AC50: 19.8 µM (active)

## CC(Sc1ccc2ccccc2n1)C(=O)O (configuration not stated)
[25]
  IC50: 1.88 µM (active)

## O=C1C2C3CCC(C3)C2C(=O)N1c1ccc(OS(=O)(=O)c2ccccc2)cc1 (configuration not stated)
[5]
  EC50: 0.408 µM (active)
[6]
  EC50: < 0.1 µM (inconclusive)
[7]
  EC50: 0.36 µM (active)
[8]
  EC50: 0.366 µM (active)

## Cc1cc2c(c(/C=C/C(=O)c3ccccc3)c1)OC1(C=C2)Oc2ccccc2C(=O)N1C (configuration not stated)
[14]
  EC50: 3.56 µM (active)
[26]
  AC50: 2.26 µM (active)
